Results published in US20150148235A1, “HERBICIDE-RESISTANT SUNFLOWER PLANTS WITH MULTIPLE HERBICIDE RESISTANT ALLELES OF AHASL1 AND METHODS OF USE” (NIDERA S.A., priority 2013, published 2015).

Test system: sunflower lines and hybrids carrying A122T and/or A205V AHASL1 alleles
Assay: Greenhouse whole-plant response to imazapyr doses (height, Phytotoxicity Index, dry biomass), Example 2
Format: in vivo, Helianthus annuus
Details: 14 DAT
Procedure: Seeds were sown in Petri dishes and, after germination, plantlets were transplanted to pots of 10 cm of diameter in a potting media consisting of equal parts of vermiculite, soil and sand. Plants were grown in a greenhouse under natural light conditions supplemented with 400 W sodium halide lamps to provide a 16 hr daylength. Day/night temperatures were 25 and 20° C., respectively. At the V2-V4 stage (Schneiter & Miller (1981) Crop Sci. 21:901-903) 10 plants of each genotype were randomly assigned to each treatment consisting of eight imazapyr doses (0, 40, 80, 160, 240, 320, 400 and 480 g ai/ha, corresponding to untreated, 0.5×, 1×, 2×, 3×, 4×, 5× and 6×, respectively), and a zero-time biomass determination. Experiment was arranged as a randomized block design with a full factorial (sunflower line×treatment) arrangement of treatments and 10 replications.
On the day of herbicide application ten plants of each genotype were cut at the cotyledonal node and dried at 60° C. for 48 hrs for zero-time dried weight determination.
The remaining plants were maintained for 14 days after imazapyr treatment (DAT) and their height, Phytotoxicity Index (PI) and above ground dry biomass were determined Height was determined as the distance between the cotyledonal node and the apex of each plant. Above ground biomass data from each line were converted to biomass accumulation after application by subtracting the appropriate average zero-time biomass from each sample. Dry biomass data were converted to percentages of the untreated control plants within each line to allow direct comparisons between groups.

[1] = H1 (A205V hybrid), 0.5x=40 g ai/ha
[2] = H2 (A122T hybrid), 0.5x=40 g ai/ha
[3] = H2 (A122T hybrid), 5x=400 g ai/ha
[4] = H3 (A122T/A205V hybrid), 1x=80 g ai/ha
[5] = H3 (A122T/A205V hybrid), 4x=320 g ai/ha
[6] = H3 (A122T/A205V hybrid), 6x=480 g ai/ha
[7] = H4 (A122T/A205V hybrid), 0.5x=40 g ai/ha
[8] = H4 (A122T/A205V hybrid), 2x=160 g ai/ha
[9] = H4 (A122T/A205V hybrid), 3x=240 g ai/ha

Compound: CC(C)C1(C)N=C(c2ncccc2C(=O)O)NC1=O (stereo not drawn) [imazapyr]
- Difference between A205V vs A205V/A122T, Phytotoxicity Index (0.5x=40 g ai/ha): −0.50
- Difference between A205V vs A205V/A122T, biomass accumulation (0.5x=40 g ai/ha): −4.33 % of untreated
- Difference between A205V vs A205V/A122T, plant height (0.5x=40 g ai/ha): 0.21 % of untreated
- Difference between A1222T vs A205V/A122T, plant height (0.5x=40 g ai/ha): 0.49 % of untreated
- ifference between A1222T vs A205V/A122T, Phytotoxicity Index (0.5x=40 g ai/ha): −0.21
- ifference between A1222T vs A205V/A122T, biomass accumulation (0.5x=40 g ai/ha): −0.76 % of untreated
- Difference between A205V vs A205V/A122T, Phytotoxicity Index (1x=80 g ai/ha): −0.50
- Difference between A205V vs A205V/A122T, biomass accumulation (1x=80 g ai/ha): −13.45 % of untreated
- Difference between A205V vs A205V/A122T, plant height (1x=80 g ai/ha): 0.89 % of untreated
- Difference between A1222T vs A205V/A122T, plant height (1x=80 g ai/ha): 1.21 % of untreated
- ifference between A1222T vs A205V/A122T, Phytotoxicity Index (1x=80 g ai/ha): −0.21
- ifference between A1222T vs A205V/A122T, biomass accumulation (1x=80 g ai/ha): −2.17 % of untreated
- Difference between A205V vs A205V/A122T, Phytotoxicity Index (2x=160 g ai/ha): 1.66
- Difference between A205V vs A205V/A122T, biomass accumulation (2x=160 g ai/ha): −30.47 % of untreated
- Difference between A205V vs A205V/A122T, plant height (2x=160 g ai/ha): −24.63 % of untreated
- Difference between A1222T vs A205V/A122T, plant height (2x=160 g ai/ha): −0.32 % of untreated
- ifference between A1222T vs A205V/A122T, Phytotoxicity Index (2x=160 g ai/ha): −0.20
- ifference between A1222T vs A205V/A122T, biomass accumulation (2x=160 g ai/ha): −1.07 % of untreated
- Difference between A205V vs A205V/A122T, Phytotoxicity Index (3x=240 g ai/ha): 4.65
- Difference between A205V vs A205V/A122T, biomass accumulation (3x=240 g ai/ha): −41.42 % of untreated
- Difference between A205V vs A205V/A122T, plant height (3x=240 g ai/ha): −46.79 % of untreated
- Difference between A1222T vs A205V/A122T, plant height (3x=240 g ai/ha): −1.22 % of untreated
- ifference between A1222T vs A205V/A122T, Phytotoxicity Index (3x=240 g ai/ha): −0.17
- ifference between A1222T vs A205V/A122T, biomass accumulation (3x=240 g ai/ha): 0.55 % of untreated
- Difference between A205V vs A205V/A122T, Phytotoxicity Index (4x=320 g ai/ha): 6.92
- Difference between A205V vs A205V/A122T, biomass accumulation (4x=320 g ai/ha): −52.87 % of untreated
- Difference between A205V vs A205V/A122T, plant height (4x=320 g ai/ha): −62.01 % of untreated
- Difference between A1222T vs A205V/A122T, plant height (4x=320 g ai/ha): 1.15 % of untreated
- ifference between A1222T vs A205V/A122T, Phytotoxicity Index (4x=320 g ai/ha): 0.00
- ifference between A1222T vs A205V/A122T, biomass accumulation (4x=320 g ai/ha): −0.73 % of untreated
- Difference between A205V vs A205V/A122T, Phytotoxicity Index (5x=400 g ai/ha): 7.59
- Difference between A205V vs A205V/A122T, biomass accumulation (5x=400 g ai/ha): −46.69 % of untreated
- Difference between A205V vs A205V/A122T, plant height (5x=400 g ai/ha): −48.59 % of untreated
- Difference between A1222T vs A205V/A122T, plant height (5x=400 g ai/ha): 9.12 % of untreated
- ifference between A1222T vs A205V/A122T, Phytotoxicity Index (5x=400 g ai/ha): 0.21
- ifference between A1222T vs A205V/A122T, biomass accumulation (5x=400 g ai/ha): −1.14 % of untreated
- Difference between A205V vs A205V/A122T, Phytotoxicity Index (6x=480 g ai/ha): 7.19
- Difference between A205V vs A205V/A122T, biomass accumulation (6x=480 g ai/ha): −41.41 % of untreated
- Difference between A205V vs A205V/A122T, plant height (6x=480 g ai/ha): −31.39 % of untreated
- Difference between A1222T vs A205V/A122T, plant height (6x=480 g ai/ha): 19.49 % of untreated
- ifference between A1222T vs A205V/A122T, Phytotoxicity Index (6x=480 g ai/ha): 0.17
- ifference between A1222T vs A205V/A122T, biomass accumulation (6x=480 g ai/ha): 2.41 % of untreated
- Height reduction (A122T homozygous lines, 0.5x): 0.1%
- Biomass weight reduction (A122T homozygous, higher dose (6x)): 25%
- Height versus untreated controls (A205V homozygous lines and hybrid, 0.5x or 1x): did not differ from the untreated controls
- Phytotoxicity Index (scale 0-9) [1]: 0
- biomass accumulation (dry) [1]: 95.0 % of untreated
- Phytotoxicity Index (scale 0-9) (H1 (A205V hybrid), 1x=80 g ai/ha): 0
- Phytotoxicity Index (scale 0-9) (H1 (A205V hybrid), 2x=160 g ai/ha): 1.8
- Phytotoxicity Index (scale 0-9) (H1 (A205V hybrid), 3x=240 g ai/ha): 6.4
- Phytotoxicity Index (scale 0-9) (H1 (A205V hybrid), 4x=320 g ai/ha): 8.0
- Phytotoxicity Index (scale 0-9) (H1 (A205V hybrid), 5x=400 g ai/ha): 8.9
- Phytotoxicity Index (scale 0-9) (H1 (A205V hybrid), 6x=480 g ai/ha): 9.0
- Phytotoxicity Index (scale 0-9) [2]: 0.5
- biomass accumulation (dry) [2]: 100 % of untreated
- Phytotoxicity Index (scale 0-9) (H2 (A122T hybrid), 1x=80 g ai/ha): 0.5
- Phytotoxicity Index (scale 0-9) (H2 (A122T hybrid), 2x=160 g ai/ha): 0.5
- Phytotoxicity Index (scale 0-9) (H2 (A122T hybrid), 3x=240 g ai/ha): 0.5
- Phytotoxicity Index (scale 0-9) (H2 (A122T hybrid), 4x=320 g ai/ha): 0.5
- Phytotoxicity Index (scale 0-9) [3]: 0.5
- plant height [3]: 87.0 % of untreated
- Phytotoxicity Index (scale 0-9) (H2 (A122T hybrid), 6x=480 g ai/ha): 0.5
- Phytotoxicity Index (scale 0-9) (H3 (A122T/A205V hybrid), 0.5x=40 g ai/ha): 0.5
- Phytotoxicity Index (scale 0-9) [4]: 0.5
- biomass accumulation (dry) [4]: 100.0 % of untreated
- plant height [4]: 97.0 % of untreated
- Phytotoxicity Index (scale 0-9) (H3 (A122T/A205V hybrid), 2x=160 g ai/ha): 0.5
- Phytotoxicity Index (scale 0-9) (H3 (A122T/A205V hybrid), 3x=240 g ai/ha): 0.5
- Phytotoxicity Index (scale 0-9) [5]: 0.5
- plant height [5]: 92.0 % of untreated
- Phytotoxicity Index (scale 0-9) (H3 (A122T/A205V hybrid), 5x=400 g ai/ha): 0.6
- Phytotoxicity Index (scale 0-9) [6]: 1.0
- plant height [6]: 58.0 % of untreated
- Phytotoxicity Index (scale 0-9) [7]: 0.0
- plant height [7]: 100.0 % of untreated
- Phytotoxicity Index (scale 0-9) (H4 (A122T/A205V hybrid), 1x=80 g ai/ha): 0.0
- Phytotoxicity Index (scale 0-9) [8]: 0.0
- plant height [8]: 100.0 % of untreated
- Phytotoxicity Index (scale 0-9) [9]: 0.0
- plant height [9]: 100.0 % of untreated
- Phytotoxicity Index (scale 0-9) (H4 (A122T/A205V hybrid), 4x=320 g ai/ha): 0.0
